Test results taken from patent US10266526B2, “Substituted 1,2,3-triazoles as SMYD inhibitors for treating cancer” (EPIZYME, INC., priority 2014, dated 2019).
Like-named read-outs stand apart in the source and are kept apart here.

Key:
SMYD2 = SMYD2 (Homo sapiens (Human), UniProt Q9NRG4); experiment: SMYD2 biochemical assay (SMYD2 enzyme assay on peptide substrate, 3H-SAM Flashplate)
SMYD3 = SMYD3 (Homo sapiens (Human), UniProt Q9H7B4); experiment: SMYD3 biochemical assay (SMYD3 enzyme assay on MEKK2 protein substrate, 3H-SAM scintillation proximity assay); details: Table 1A; average of n = 1 to n = 50; read-out: SMYD3 Biochem IC50
Outline: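 Detection used scintillation proximity beads to capture ³H-methylated GST-MEKK2 after quench with 100 uM final cold SAM. The reaction was started by SAM/MEKK2 addition after a 30 min RT compound–enzyme preincubation. Enzyme was tag-free full-length human SMYD3 from E. coli, in buffer of 25 mM Tris-Cl pH 8.0, 1 mM TCEP, 0.005% BSG, 0.005% Tween 20.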

[1] = SMYD2 Biochem IC50, IC50 values are an average of n = 1 to n = 50
[2] = read-out: SMYD2 Biochem IC50, IC50 values are an average of n = 1 to n = 50

SMYD2, sequence (Q9NRG4 whole entry): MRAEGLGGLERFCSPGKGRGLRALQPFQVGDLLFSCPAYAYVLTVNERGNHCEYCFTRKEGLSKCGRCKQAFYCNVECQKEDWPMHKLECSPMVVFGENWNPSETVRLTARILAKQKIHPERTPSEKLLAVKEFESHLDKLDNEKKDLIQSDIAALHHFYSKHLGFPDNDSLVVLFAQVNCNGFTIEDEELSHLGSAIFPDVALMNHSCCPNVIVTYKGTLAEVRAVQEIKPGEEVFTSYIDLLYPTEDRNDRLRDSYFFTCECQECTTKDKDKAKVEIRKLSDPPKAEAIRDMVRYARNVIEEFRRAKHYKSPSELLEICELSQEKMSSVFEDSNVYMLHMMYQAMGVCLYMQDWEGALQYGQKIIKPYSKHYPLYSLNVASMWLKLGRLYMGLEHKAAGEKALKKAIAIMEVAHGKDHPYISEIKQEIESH
SMYD3, sequence (Q9H7B4 whole entry): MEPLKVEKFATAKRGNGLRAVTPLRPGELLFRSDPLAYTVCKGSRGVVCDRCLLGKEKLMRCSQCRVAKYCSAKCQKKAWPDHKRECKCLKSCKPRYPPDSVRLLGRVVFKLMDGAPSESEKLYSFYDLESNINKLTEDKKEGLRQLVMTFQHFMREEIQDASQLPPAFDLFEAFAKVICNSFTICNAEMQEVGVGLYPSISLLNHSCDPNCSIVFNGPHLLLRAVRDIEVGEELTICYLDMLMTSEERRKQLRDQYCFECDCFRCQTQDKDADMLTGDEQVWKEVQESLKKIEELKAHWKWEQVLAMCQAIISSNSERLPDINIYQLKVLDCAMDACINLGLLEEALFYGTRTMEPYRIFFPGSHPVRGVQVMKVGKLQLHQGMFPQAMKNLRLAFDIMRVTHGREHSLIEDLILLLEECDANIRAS

| SMILES | IC50 (SMYD2; [2]) [nM] | IC50 (SMYD3) [nM] | further results |
| --- | --- | --- | --- |
| C[C@H](c1ccccc1)N1C[C@@H](NC(=O)c2cn(C3CC3)nn2)C1(C)C (racemic) [compound 984, rac-1-cyclopropyl-N-((R)-2,2-dimethyl-1-((R)-1-phenylethyl)azetidin-3-yl)-1H-1,2,3-triazole-4-carboxamide] | – | – | IC50 (SMYD2): 18900 nM |
| C[C@@H](c1ccccc1)N1C[C@@H](NC(=O)c2cn(C3CC3)nn2)C1(C)C (racemic) [compound 1026, rac-1-cyclopropyl-N-((R)-2,2-dimethyl-1-((S)-1-phenylethyl)azetidin-3-yl)-1H-1,2,3-triazole-4-carboxamide] | – | – | IC50 (SMYD2): 910 nM |
| C[C@@H](c1ccc(OCc2ccccc2)cc1)N1CC(NC(=O)c2cn(C3CC3)nn2)C1 (single isomer, unassigned) [compound 778] | – | – | IC50 (SMYD2; [1]): 84.5 nM |
| C[C@H](c1ccc(OCc2ccccc2)cc1)N1CC(NC(=O)c2cn(C3CC3)nn2)C1 (single isomer, unassigned) [compound 788] | – | – | IC50 (SMYD2; [1]): 414 nM |
| C[C@H](c1cccc(OCCO)c1Cl)N1CC(NC(=O)c2cn(C3CC3)nn2)C1 (single isomer, unassigned) [compound 832] | – | – | IC50 (SMYD2): 14300 nM |
| Cc1n[nH]c(C(=O)NC(C)C2CCN(C(=O)[C@H](C)N)CC2)n1 (stereo partly drawn) [compound 549, N-(1-(1-(L-alanyl)piperidin-4-yl)ethyl)-3-methyl-1H-1,2,4-triazole-5-carboxamide] | – | > 50000 | – |
| Cc1nc(C(=O)N[C@H]2CC[C@H](N)CC2)n[nH]1 [compound 550, N-((1r,4r)-4-aminocyclohexyl)-5-methyl-1H-1,2,4-triazole-3-carboxamide] | – | 14700 | – |
| CC(NC(=O)c1nc2ccncc2s1)C1CCN(C(=O)[C@H](C)N)CC1 (stereo partly drawn) [compound 551, N-(1-(1-(L-alanyl)piperidin-4-yl)ethyl)thiazolo[5,4-c]pyridine-2-carboxamide] | – | > 50000 | – |
| CCc1cnc(C(=O)NC(C)C2CCN(C(=O)[C@H](C)N)CC2)s1 (stereo partly drawn) [compound 552, N-(1-(1-(L-alanyl)piperidin-4-yl)ethyl)-5-ethylthiazole-2-carboxamide] | – | 6440 | – |
| CCc1cnc(C(=O)N[C@H]2CC[C@H](NC(=O)CCN)CC2)s1 [compound 553, N-((1r,4r)-4-(3-aminopropanamido)cyclohexyl)-5-ethylthiazole-2-carboxamide] | – | 25600 | – |
| CCc1cnc(C(=O)N[C@H]2CC[C@H](N)CC2)s1 [compound 554, N-((1r,4r)-4-aminocyclohexyl)-5-ethylthiazole-2-carboxamide] | – | > 50000 | – |
| N[C@H]1CC[C@H](C(=O)N2CCC(NC(=O)c3nnc[nH]3)CC2)CC1 [compound 555, N-(1-((1r,4r)-4-aminocyclohexane-1-carbonyl)piperidin-4-yl)-4H-1,2,4-triazole-3-carboxamide] | – | > 50000 | – |
| NCCC(=O)N1CCC(NC(=O)c2nnc[nH]2)CC1 [compound 556, N-(1-(3-aminopropanoyl)piperidin-4-yl)-4H-1,2,4-triazole-3-carboxamide] | – | > 50000 | – |
| N[C@H]1CC[C@H](NC(=O)c2cc3c(cn2)NC(=O)C3)CC1 [compound 559, N-((1r,4r)-4-aminocyclohexyl)-2-oxo-2,3-dihydro-1H-pyrrolo[2,3-c]pyridine-5-carboxamide] | – | 3490 | – |
| CN(C(=O)c1ncn[nH]1)[C@H]1CC[C@H](N)CC1 [compound 561, N-((1r,4r)-4-aminocyclohexyl)-N-methyl-1H-1,2,4-triazole-5-carboxamide] | – | > 10000 | – |
| Cc1c[nH]c(C(=O)N[C@H]2CC[C@H](N)CC2)n1 [compound 562, N-((1r,4r)-4-aminocyclohexyl)-4-methyl-1H-imidazole-2-carboxamide] | – | > 10000 | – |
| N[C@H]1CC[C@H](NC(=O)c2cc3cc(Br)ccc3nc2O)CC1 [compound 565, N-((1r,4r)-4-aminocyclohexyl)-6-bromo-2-hydroxyquinoline-3-carboxamide] | – | > 10000 | – |
| NCCC(=O)N[C@H]1CC[C@H](NC(=O)c2cc3cc(Br)ccc3nc2O)CC1 [compound 566, N-((1r,4r)-4-(3-aminopropanamido)cyclohexyl)-6-bromo-2-hydroxyquinoline-3-carboxamide] | – | > 10000 | – |
| Nc1nc(C(=O)N[C@H]2CC[C@H](N)CC2)c[nH]1 [compound 572, 2-amino-N-((1r,4r)-4-aminocyclohexyl)-1H-imidazole-4-carboxamide] | – | > 10000 | – |
| N[C@H]1CC[C@H](NC(=O)c2cnc3ncccn23)CC1 [compound 574, N-((1r,4r)-4-aminocyclohexyl)imidazo[1,2-a]pyrimidine-3-carboxamide] | – | > 10000 | – |
| CC(C)N1CC(NC(=O)c2cc(C3CC3)cnn2)C1 [compound 645, 5-cyclopropyl-N-[1-(propan-2-yl)azetidin-3-yl]pyridazine-3-carboxamide] | 745 | – | – |
| C[C@@H](c1ccccc1)N1CC(NC(=O)c2cc(C3CC3)cnn2)C1 [compound 646, 5-cyclopropyl-N-{1-[(1S)-1-phenylethyl]azetidin-3-yl}pyridazine-3-carboxamide] | 516 | – | – |

Second part, led by results:

| IC50 (SMYD2; [2]) [nM] | IC50 (SMYD3) [nM] | SMILES | further results |
| --- | --- | --- | --- |
| 57.8 | – | C[C@@H](c1cccc(OCCO)c1Cl)N1CC(NC(=O)c2cn(C3CC3)nn2)C1 (single isomer, unassigned) [compound 831] | – |
| 7800 | – | C[C@H](c1ccccc1)N1CC(NC(=O)c2cc(C3CC3)cnn2)C1 [compound 647, 5-cyclopropyl-N-{1-[(1R)-1-phenylethyl]azetidin-3-yl}pyridazine-3-carboxamide] | – |
| 7330 | – | Cn1cnc(CN2CC(NC(=O)c3cc(C4CC4)cnn3)C2)c1Cl [compound 648, N-{1-[(5-chloro-1-methyl-1H-imidazol-4-yl)methyl]azetidin-3-yl}-5-cyclopropylpyridazine-3-carboxamide] | – |
| 140 | – | CC(c1cc(Cl)ccc1Cl)N1CC(NC(=O)c2cc(C3CC3)cnn2)C1 (stereo not shown) [compound 649, 5-cyclopropyl-N-{1-[1-(2,5-dichlorophenyl)ethyl]azetidin-3-yl}pyridazine-3-carboxamide] | – |
| 312 | – | COc1c(OCCO)cccc1C(C)N1CC(NC(=O)c2cc(C3CC3)cnn2)C1 (stereo not shown) [compound 650, 5-cyclopropyl-N-(1-{1-[3-(2-hydroxyethoxy)-2-methoxyphenyl]ethyl}azetidin-3-yl)pyridazine-3-carboxamide] | – |
| 541 | – | O=C(NC1CN(Cc2ccccc2)C1)c1cc(C2CC2)cnn1 [compound 651, N-(1-benzylazetidin-3-yl)-5-cyclopropylpyridazine-3-carboxamide] | – |
| 41.6 | – | CC(c1cccc(OCCO)c1Cl)N1CC(NC(=O)c2cc(C3CC3)cnn2)C1 (stereo not shown) [compound 652, N-(1-{1-[2-chloro-3-(2-hydroxyethoxy)phenyl]ethyl}azetidin-3-yl)-5-cyclopropylpyridazine-3-carboxamide] | – |
| 10400 | – | O=C(NC1CNC1)c1cn(C2CC2)nn1 [compound 657, N-(azetidin-3-yl)-1-cyclopropyl-1H-1,2,3-triazole-4-carboxamide] | – |
| 2840 | – | CN1CC(NC(=O)c2cn(C3CC3)nn2)C1 [compound 659, 1-cyclopropyl-N-(1-methylazetidin-3-yl)-1H-1,2,3-triazole-4-carboxamide] | – |
| 1170 | – | CCCN1CC(NC(=O)c2cn(C3CC3)nn2)C1 [compound 660, 1-cyclopropyl-N-(1-propylazetidin-3-yl)-1H-1,2,3-triazole-4-carboxamide] | – |
| 846 | – | CC(C)N1CC(NC(=O)c2cn(C3CC3)nn2)C1 [compound 662, 1-cyclopropyl-N-[1-(propan-2-yl)azetidin-3-yl]-1H-1,2,3-triazole-4-carboxamide] | – |
| 585 | – | CC(C)N1CC(NC(=O)c2cn(C3CC3)nn2)C1 [compound 663, 1-cyclopropyl-N-[1-(propan-2-yl)azetidin-3-yl]-1H-1,2,3-triazole-4-carboxamide] | – |
| 2000 | – | O=C(NC1CN(CC2CC2)C1)c1cn(C2CC2)nn1 [compound 665, 1-cyclopropyl-N-[1-(cyclopropylmethyl)azetidin-3-yl]-1H-1,2,3-triazole-4-carboxamide] | – |
| 6060 | – | O=C(NC1CN(CC2COC2)C1)c1cn(C2CC2)nn1 [compound 666, 1-cyclopropyl-N-[1-(oxetan-3-ylmethyl)azetidin-3-yl]-1H-1,2,3-triazole-4-carboxamide] | – |
| 2460 | – | COCCN1CC(NC(=O)c2cn(C3CC3)nn2)C1 [compound 667, 1-cyclopropyl-N-[1-(2-methoxyethyl)azetidin-3-yl]-1H-1,2,3-triazole-4-carboxamide] | – |
| 2750 | – | CC(C)CN1CC(NC(=O)c2cn(C3CC3)nn2)C1 [compound 668, 1-cyclopropyl-N-[1-(2-methylpropyl)azetidin-3-yl]-1H-1,2,3-triazole-4-carboxamide] | – |
| 1620 | – | O=C(NC1CN(CC2CCC2)C1)c1cn(C2CC2)nn1 [compound 669, N-[1-(cyclobutylmethyl)azetidin-3-yl]-1-cyclopropyl-1H-1,2,3-triazole-4-carboxamide] | – |
| 4530 | – | O=C(NC1CN(CCO)C1)c1cn(C2CC2)nn1 [compound 670, 1-cyclopropyl-N-[1-(2-hydroxyethyl)azetidin-3-yl]-1H-1,2,3-triazole-4-carboxamide] | – |
| 4210 | – | O=C(NC1CN(Cc2ccccc2)C1)c1cn(C2CC2)nn1 [compound 671, N-(1-benzylazetidin-3-yl)-1-cyclopropyl-1H-1,2,3-triazole-4-carboxamide] | – |
| 1550 | – | O=C(NC1CN(Cc2ccccc2)C1)c1cn(C2CC2)nn1 [compound 672, N-(1-benzylazetidin-3-yl)-1-cyclopropyl-1H-1,2,3-triazole-4-carboxamide] | – |
| 1550 | – | O=C(NC1CN(CCc2ccccc2)C1)c1cn(C2CC2)nn1 [compound 673, 1-cyclopropyl-N-[1-(2-phenylethyl)azetidin-3-yl]-1H-1,2,3-triazole-4-carboxamide] | – |
